{
  "source": "patent US20230033195A1",
  "about": "“METHODS AND COMPOSITIONS FOR IMPROVING COGNITIVE FUNCTION” (THE JOHNS HOPKINS UNIVERSITY, priority 2011, published 2023)",
  "key": {"[1]": {"test_system": "entorhinal cortex (EC) of aMCI subjects", "assay": "fMRI activity during lure stimuli correctly identified as similar, entorhinal cortex", "type": "in vivo, human", "settings": "125 mg twice a day for two weeks", "description": "FIG. 9B depicts the average activity in the left entorhinal cortex of the same aMCI subjects with placebo treatment or levetiracetam treatment (125 mg twice a day for two weeks) during the presentation of lure stimuli that the subject correctly identified as \"similar.\"\nA within-subjects trial of 8 weeks duration, involving 17 amnestic MCI (aMCI) subjects and 17 age-matched controls with a low dose treatment of levetiracetam is conducted. During the course of the study, each aMCI subject receives both drug and placebo treatments separately in two periods of two weeks each, with the order of treatments among different aMCI subjects counterbalanced (see FIG. 7). Age-matched control subjects treated with placebo serve as a further control. Cognitive testing and fMRI imaging data are obtained from the subjects after each two week period of drug/placebo treatment.\nImaging data are obtained through high-resolution methods developed in the Stark laboratory. Data are collected on a Phillips 3 Tesla scanner (Eindhoven, The Netherlands) equipped with an 8-channel SENSE (Sensitivity Encoding) head coil, located at the F.M. Kirby Research Center for Functional Brain Imaging at the Kennedy Krieger Institute (Baltimore, MD). […]\nGroup data are analyzed using a two-way Analysis of Variance (ANOVA) with trial types and group as fixed factors, and subject as a random factor nested within group. […]"}, "[2]": {"test_system": "Age-Impaired (AI) Long-Evans rats", "assay": "Morris Water Maze (MWM) retention trial, spatial memory retention", "type": "in vivo, rat", "description": "FIG. 2 depicts the effects of administering levetiracetam on the spatial memory retention of six aged-impaired rats (AI) in a Morris Water Maze (MWM) test. Three treatment conditions were employed: vehicle control, levetiracetam (5 mg/kg/day) and levetiracetam (10 mg/kg/day). The AI rats were trained for two consecutive days, with a one-time treatment prior to the training trials per day. 24 hours later, the AI rats were tested. The time the AI rats, 24 hours after treatment with the different conditions and two days of training, spent swimming in the target quadrant or the target annulus in a memory retention trial is used as a measure of spatial memory retention. The target quadrant refers to the quadrant of the maze (which is a circular pool) where the escape platform is placed during the training trials. The target annulus refers to the exact location of the escape platform during the training trials.\nThe MWM apparatus consists of a large, circular pool (diameter 1.83 m; height, 0.58 m) filled with water (27° C.) that is made opaque through the addition of non-toxic pigment or some other substance. In the typical \"hidden platform\" version of the test, rats are trained to find a camouflaged white escape platform (height, 34.5 cm) that is positioned in the center of one quadrant of the maze about 1.0 cm below the water surface. This platform can be retracted to the bottom of the tank or raised to its normal position from outside the maze during behavioral testing. The location of the platform remains constant from trial to trial. Because there are no local cues that mark the position of the platform, the rat's ability to locate it efficiently from any starting position at the perimeter of the pool depends on using information surrounding the maze. The maze is surrounded by black curtains to which white patterns are affixed to provide a configuration of spatial cues. A second platform (height 37.5 cm), with its surface painted black is elevated 2 cm above the water surface during cue training to control for factors unrelated to cognition. The behavior of a rat in the pool is recorded by a camera that is suspended 2.5 m above the center of the pool. The camera is connected to a video tracking system (HVS Image Advanced Tracker VP200) and a PC computer running HVS software developed by Richard Baker of HVS Image, Hampton, UK.\nThe MWM protocol is optimized for sensitivity to the effects of aging on cognition and for measures of reliable individual differences within the aged population of out-bred Long-Evans rats (Gallagher et al. Behav. Neurosci. 107:618-626, (1993)). […] At the completion of the protocol using the hidden platform, rats are assessed for cue learning using the visible platform. […]"}},
  "data": [
    {"smiles": "CC[C@@H](C(N)=O)N1CCCC1=O", "note": "[levetiracetam, (2S)-2-(2-oxopyrrolidin-1-yl) butanamide]", "values": [
      {"measurement": "EC activity compared with placebo-treated control subjects", "setting": "[1]", "result": "statistically indistinguishable"},
      {"measurement": "EC activity during memory judgments, vs placebo treatment", "setting": "[1]", "result": "increases EC activity"},
      {"measurement": "performance (time in target quadrant) compared to vehicle", "setting": "[2]; 5 mg/kg/day i.p., retention trial 24 h after training", "result": "did not significantly improve"},
      {"measurement": "time spent in the target annulus", "setting": "[2]; 10 mg/kg/day i.p., retention trial", "result": "effectivness of the 10 mg/kg/day levetiracetam treatment was also seen"},
      {"measurement": "memory as compared to vehicle-treated controls (time in target quadrant)", "setting": "[2]; 10 mg/kg/day i.p., retention trial 24 h after training", "result": "significantly improved memory"},
      {"measurement": "time spent in the target quadrant, percentage of total swimming time", "setting": "[2]; 10 mg/kg/day i.p., retention trial 24 h after two training days", "result": "approximately 35%"}
    ]}
  ]
}
